# Test results: patent US20050065114A1, “Therapeutical treatment with oligo-beta- (1,3) -glucans, drugs used in said treatment” (priority 2003, published 2005)
# Several values for one entry are separate records, joined by “and”; a condition that tells them apart may be missing. Equal entries are not always repeated.
# Assays:
# Format in all cases: in vivo, Balb/c mice
# TNF-alpha = test: Cytokine level in peripheral blood: TNF-alpha in serum by OptEIA Mouse TNF-alpha ELISA; conditions: for TNF-alpha level (Table 6, same experiments as Table 5): 250 μg/mouse, unit not given in Table 6 (Table 5: pg/ml); for Relative activity on TNF-alpha level (in words): comparison between substances, Table 6, 24 and 48 h
# Procedure: Balb/c mice were intraperitoneally injected with 50 μg of Laminaritetraose, Laminaripentaose, Laminarin or Lentinan (purchased from NIH, Bethesda, Md., USA) in PBS.
# After various time intervals (30, 60 and 90 minutes, respectively), after the injection of Laminaritetraose, Laminaripentaose, Laminarin, Lentinan only, the mice were killed and blood was collected in Eppendorf tubes.
# Subsequently, the serum of the collected blood was separated, collected and stored at −80° C. for no more than 1 week.
# The level of TNF-alpha in the serum samples was evaluated using a commercial kit marketed as OptEIA Mouse TNF-alpha (Mono/Mono) Set by the Company Pharmingen, San Diego, Calif., USA); the manufacturer's instructions were followed.
# In connection with the experiments carried out by Applicants, Balb/c mice were intraperitoneally injected with various doses (50, 100, and 250 μg) of Soluble laminarin and Lentinan (from NIH, Bethesda, Md., USA) in PBS.
# Control mice were treated with PBS only. […]
# Subsequently, the serum was prepared, collected and stored at −80° C. for no more than 1 week.
# The level of TNF-alpha in serum samples was evaluated using a commercial kit marketed as OptEIA Mouse TNF-alpha (Mono/Mono) Set by the Company Pharmingen, San Diego, Calif., USA); the manufacturer's instructions were followed.
# In that respect, The wells of 96-well plates were coated with 0.1 ml/well of capture antibody (provided in the above kit) diluted in coating buffer (also provided in the above kit); the expression “capture antibody” designates first antibody used for coating of wells; this antibody captures the tested cytokines from the solution; in this assay it was anti-mouse-TNF-alpha monoclonal antibody.
# The plates were sealed and incubated overnight at 4° C.
# Individual wells were emptied by aspiration and washed 3 times with over 300 el/well of wash buffer (also provided in the kit).
# Reaction was blocked with 200 el/well of assay dilutant diluent (also provided in the kit) and by incubation for 60 minutes at room temperature.
# Again, individual wells were emptied by aspiration and washed 3 times with over 300 el/well of the same wash buffer.
# Standards (also provided in the kit) and samples of serum were diluted in assay diluent (also provided in the kit) and pipetted (100 μl/well) in appropriate wells; as far as the dissolution rate is concerned standards (part of the kit) were diluted according to the instructions into following concentrations: 1000 pg/ml, 500 pg/ml, 250, 125, 62.5, 31.3, and 15.6 pg/ml.
# The plates were sealed and incubated for 60 minutes at room temperature. Individual wells were aspirated and washed 3 times with over 300 μl/well of the same wash buffer. A quantity of 100 μl/well of a working detector (antibody-avidin-HRP conjugate also provided in the kit) was added into each well.
# The plates were sealed with plastic foils and incubated for 60 minutes at room temperature. Individual wells were emptied by aspiration and washed 3 times with over 300 μl/well of same wash buffer.
# A quantity of 100 μl/well of substrate solution (also provided in the kit) was added to each well and the plates were incubated for 30 minutes in the dark at room temperature; “substrate solution” is formed by mixing a substrate reagent A containing hydrogen peroxide and Substrate reagent B containing 3,3′,5,5′-tetramethylbenzidine in organic solvent; when mixed together, the reagent reacts with peroxidase-labeled conjugates to develop a blue color.
# A quantity of 50 μl/well of stop solution provided in the kit and adapted to stop the reaction was added to each well and the optical density was determined using a STL ELISA reader (marketed by Tecan U.S., Research Triangle Park, N.C.) at 450 nm with a correction at 570 nm.
# The concentration of TNF-alpha, in pg/ml, in the blood of the mice treated as hereabove disclosed has been determined at the following moments: 30, 60 and 90 minutes after the injection of Laminaritetraose, Laminaripentaose, Lentinan and control. […]
# [1] = tested on: peripheral blood cells (monocytes, lymphocytes, granulocytes); test: Differential count in blood; conditions: for % of granulocytes / % of lymphocytes / % of monocytes: peripheral blood 24 hrs after i.p. injection
# Procedure: (§1) Using the same experimental groups as described above in Example 3, two extra microscopic slides from each experimental sample were prepared. After Accustain (modified Wright stain, Sigma) staining, the slides were evaluated using the optical microscope for presence of individual types of cells, i.e. monocytes, lymphocytes and granulocytes.
# [2] = tested on: cells from peripheral blood (monocytes, granulocytes); test: Phagocytosis of HEMA particles by cells from peripheral blood after intraperitoneal injection; conditions: for % of phagocytosing granulocytes / % of phagocytosing monocytes: peripheral blood 24 hrs after i.p. injection
# Procedure: A group of Balb/c mice (Jackson laboratory, Bar Harbor, ME, USA) has been injected intraperitoneally with either PBS (Control; Sigma, St. Louis, Mo., USA), Laminaritetraose or Laminaripentaose. 24 hrs later, mice were sacrified, peripheral blood from the orbital plexus was collected into heparine (5 IU/ml) (Sigma).
# After counting, a test of phagocytosis of HEMA particles (synthetic microspheres prepared from 2-hydroxyethylmethacrylate copolymer) was performed as described in: Rembaum et al., 1976, Vetvicka et al. 1982, Bilej et al., 1989.
# 0.1 ml of heparinized fresh blood was added to 0.05 ml of diluted HEMA particles (5×10^8/ml) and incubated for 60 minutes at 37° C. with occasional gentle agitation.
# After the end of incubation, the cell suspension was smeared over microscope slides. Smears were evaluated under the optical microscope after Accustain (modified Wright stain, Sigma) staining.
# Cells with at least three engulfed particles were considered to be positive.
# [3] = tested on: peritoneal cells (macrophages, lymphocytes, mast cells); test: Differential count in peritoneal cells; conditions: for % of lymphocytes / % of macrophages / % of mast cells: peritoneal cells 24 hrs after i.p. injection
# Procedure: as §1, with “4,” for “3,”, “macrophages,” for “monocytes,”, “mast cells.” for “granulocytes.”
# peritoneal macrophages = test: Phagocytosis of HEMA particles by cells from peritoneal cavity after intraperitoneal injection; conditions: for % of phagocytosing macrophages: peritoneal cells 24 hrs after i.p. injection
# Procedure: A group of Balb/c mice (Jackson laboratory, Bar Harbor, Me., USA) has been injected intraperitoneally with either PBS (control), Laminaritetraose or Laminaripentaose. 24 hrs later, mice were sacrificed, peritoneal cells were collected into Hanks medium (Sigma).
# After counting the cells in hemocytometer, the peritoneal cells were diluted to lxlO7 cells in RPMI 1640 medium (Sigma) with 5% fetal calf serum (Hyclone, Logan, Utah, USA).
# 2×10^6 cells in 0.2 ml of RPMI 1640 medium supplemented with 5% fetal calf serum were mixed with the same volume of HEMA particles (5×10^8/ml).
# The suspension was incubated for 60 minutes at 37° C. with occasional agitation. Incubation was terminated by centrifugation (150 g for 5 minutes) and the pellet was resuspended.
# Macrophages with ingested particles were scored under the optical microscope in smears after Accustain (modified Wright stain, Sigma) staining.
# Cells with six or more engulfed particles were considered to be positive.
# [4] = individual values, cells with at least three engulfed HEMA particles positive
# [5] = mean, at least three engulfed HEMA particles
compound,measurement,setting,value
"OC[C@H]1O[C@@H](O[C@@H]2[C@@H](O)[C@H](O[C@@H]3[C@@H](O)[C@H](O[C@@H]4[C@@H](O)[C@H](O[C@@H]5[C@@H](O)[C@H](O)O[C@H](CO)[C@H]5O)O[C@H](CO)[C@H]4O)O[C@H](CO)[C@H]3O)O[C@H](CO)[C@H]2O)[C@H](O)[C@@H](O)[C@@H]1O [Laminaripentaose, β-D-glucopyranosyl-(1→3)-β-D-glucopyranosyl-(1→3)-β-D-glucopyranosyl-(1→3)-β-D-glucopyranosyl-(1→3)-β-D-glucopyranose]",Concentration of TNF alpha in blood of treated mice,"TNF-alpha; 50 μg/mouse i.p., 30 min",34.3 pg/mL
same,Concentration of TNF alpha in blood of treated mice,"TNF-alpha; 50 μg/mouse i.p., 60 min",37.0 pg/mL
same,Concentration of TNF alpha in blood of treated mice,"TNF-alpha; 50 μg/mouse i.p., 90 min",71.3 pg/mL
same,Concentration of TNF alpha in blood of treated mice,"TNF-alpha; 100 μg/mouse i.p., 30 min",53.0 pg/mL
same,Concentration of TNF alpha in blood of treated mice,"TNF-alpha; 100 μg/mouse i.p., 60 min",46.5 pg/mL
same,Concentration of TNF alpha in blood of treated mice,"TNF-alpha; 100 μg/mouse i.p., 90 min",93.2 pg/mL
same,Concentration of TNF alpha in blood of treated mice,"TNF-alpha; 250 μg/mouse i.p., 30 min",42.1 pg/mL
same,Concentration of TNF alpha in blood of treated mice,"TNF-alpha; 250 μg/mouse i.p., 60 min",36.4 pg/mL
same,Concentration of TNF alpha in blood of treated mice,"TNF-alpha; 250 μg/mouse i.p., 90 min",24.4 pg/mL
same,"TNF-alpha level (Table 6, same experiments as Table 5)",TNF-alpha; 24 hours,79.6 pg/mL
same,"TNF-alpha level (Table 6, same experiments as Table 5)",TNF-alpha; 48 hours,38.7 pg/mL
same,Relative activity on TNF-alpha level (in words),TNF-alpha,more active than Laminaritetraose
same,Relative activity on TNF-alpha level (in words),TNF-alpha; listed as laminaripentaose,more active than yest derived glucan (Lentinan)
same,Increase of TNF-alpha secretion compared with Lentinan (in words),"TNF-alpha; low doses, indirect activation of macrophages and cytotoxic T lymphocytes",significantly higher
same,% of granulocytes,[1]; individual values,33.8% and 35.9% and 36.9%
same,% of lymphocytes,[1]; individual values,57.1% and 54.1% and 53.3%
same,% of monocytes,[1]; individual values,9.1% and 1.0% and 9.8%
same,% of granulocytes,[1]; mean,35.5%
same,% of lymphocytes,[1]; mean,54.8%
same,% of monocytes,[1]; mean,9.4%
same,Effect on number of granulocytes in the peripheral blood (in words),[1]; versus PBS control,increase the number of granulocytes
same,% of phagocytosing granulocytes,[2]; [4],40.8% and 42.5% and 46.4%
same,% of phagocytosing monocytes,[2]; [4],41.6% and 43.1% and 49.6%
same,% of phagocytosing granulocytes,[2]; [5],43.2%
same,% of phagocytosing monocytes,[2]; [5],44.8%
same,Effect on phagocytosis in monocytes and granulocytes (in words),"[2]; peripheral blood, versus PBS control",strongly stimulate phagocytosis
same,% of lymphocytes,[3]; individual values,48.1% and 48.0% and 34.7%
same,% of macrophages,[3]; individual values,50.4% and 48.1% and 59.8%
same,% of mast cells,[3]; individual values,1.5% and 3.9% and 5.5%
same,% of lymphocytes,[3]; mean,43.4%
same,% of macrophages,[3]; mean,52.8%
same,% of mast cells,[3]; mean,3.6%
same,Effect on migration of macrophage into the peritoneal cavity (in words),[3]; versus PBS control,stimulate the migration of macrophage
same,% of phagocytosing macrophages,"peritoneal macrophages; individual values, cells with six or more engulfed HEMA particles positive",54.9% and 57.3% and 62.7%
same,% of phagocytosing macrophages,"peritoneal macrophages; mean, six or more engulfed HEMA particles",58.3%
same,Effect on phagocytosis of peritoneal macrophages (in words),"peritoneal macrophages; peritoneal cells, versus PBS control",strongly stimulate phagocytosis
Lentinan [reference compound],Concentration of TNF alpha in blood of treated mice,"TNF-alpha; 50 μg/mouse i.p., 30 min",20 pg/mL
same,Concentration of TNF alpha in blood of treated mice,"TNF-alpha; 50 μg/mouse i.p., 60 min",15.7 pg/mL
same,Concentration of TNF alpha in blood of treated mice,"TNF-alpha; 50 μg/mouse i.p., 90 min",32.0 pg/mL
same,Concentration of TNF alpha in blood of treated mice,"TNF-alpha; 100 μg/mouse i.p., 30 min",28 pg/mL
same,Concentration of TNF alpha in blood of treated mice,"TNF-alpha; 100 μg/mouse i.p., 60 min",30.7 pg/mL
same,Concentration of TNF alpha in blood of treated mice,"TNF-alpha; 100 μg/mouse i.p., 90 min",20.3 pg/mL
same,Concentration of TNF alpha in blood of treated mice,"TNF-alpha; 250 μg/mouse i.p., 30 min",86.3 pg/mL
same,Concentration of TNF alpha in blood of treated mice,"TNF-alpha; 250 μg/mouse i.p., 60 min",68.7 pg/mL
same,Concentration of TNF alpha in blood of treated mice,"TNF-alpha; 250 μg/mouse i.p., 90 min",48.6 pg/mL
